Entries after “also recorded” stand apart in the source; their conditions may differ.

The test system of assay [1] is NMDAR. In words: Simultaneous NMDA- and AMPA-eEPSCs at −40 mV, patch-clamp, hippocampal slices. The following applies: for NMDA-eEPSCs (NMDAR function) at −40 mV: CQ 4 uM, 20 minutes, WT and Shank2^−/− SC-CA1 synapses. The class given is cell-based, mouse. The procedure: For electrophysiological experiments, sagittal hippocampal slices (400 uM thick for extracellular, 300 uM thick for intracellular recordings) of Shank2^−/− mice (or ZnT3^−/− mice) and their wild-type littermates were prepared using a vibratome (Leica VT1200) in ice-cold dissection buffer containing (in mM) 212 sucrose, 25 NaHCO3, 5 KCl, 1.25 NaH2PO4, 0.5 CaCl2, 3.5 MgSO4, 10 D-glucose, 1.25 L-ascorbic acid, and 2 Na-pyruvate bubbled with 95% 02/5% CO2. CA3 was removed to prevent epileptiform activity. Slices were restored for 1 hour in 32° C. in a normal artificial CSF (ACSF) (In units of mM: 124 NaCl, 2.5 kCl, 1 NaH2PO4, 25 NaHCO3, 10 glucose, 2 CaC12, 2 Mg504 oxidized by 95% 02/5% CO2) For the recording, a single slice was moved to and maintained in submerged-type chamber at 28° C., continuously perfused with ACSF (2 mL/minute) saturated with 95% 02/5% CO2. Stimulation and recording pipettes were pulled from borosilicate glass capillaries (Harvard Apparatus) using a micropipette electrode puller (Narishege).
Whole-cell patch-clamp recordings of hippocampal CA1 pyramidal neurons were also made using a MultiClamp 700B amplifier (Molecular Devices) and Digidata 1440A (Molecular Devices). During whole-cell patch-clamp recordings, series resistance was monitored each sweep by measuring the peak amplitude of the capacitance currents in response to short hyperpolarizing step pulse (5 mV, 40 ms); only cells with a change in <25% were included in the analysis. For NMDA (N-Methyl-D-aspartate)/AMPA (alpha-amino-3-hydroxy-5-methylisoxazole-4-propionic acid) ratio experiments, mouse hippocampal slices at the age of postnatal day 17 to 25 were used. The recording pipettes (2.5 to 3.5 MΩ) were filled with an internal solution containing the following (in mM): 100 CsMeSO4, 10 TEA-Cl, 8 NaCl, 10 HEPES, 5 QX-314-C1, 2 Mg-ATP, 0.3 Na-GTP, 10 EGTA, with pH 7.25, 295 mOsm). CA1 pyramidal neurons were voltage-clamped at −70 mV, and EPSPs were evoked at every 15 sec. AMPAR-mediatedEPSCs were recorded at −70 mV, and 30 consecutive responses were recorded after stable baseline. After recording AMPAR-mediated EPSPs, holding potential was changed to +40 mV to record NMDA receptor-mediated EPSPs. NMDA component was measured at 60 ms after the stimulation. The NMDA/AMPA ratio was determined by dividing the mean value of 30 NMDA components of EPSPs by the mean value of 30 AMPAR-mediated EPSC peak amplitudes. […] For measuring AMPAR-mediated and NMDAR-mediated EPSCs together upon CQ treatment, pyramidal neurons were voltage-clamped at −40 mV, and EPSCs were evoked at every 15 sec. AMPAR-mediated EPSC was determined as a peak amplitude of EPSC, and NMDAR-mediated EPSC as a component at 60 ms after stimulation. NMDA/AMPA ratio at −40 mV was calculated by using both values, and monitored during the experimental process. […] Picrotoxin (100 uM) was always added to ACSF to block GABAA receptor-mediated currents.

Assay [2] deals with Shank2^−/− mice. In words: Three-chamber social interaction assay, Shank2 mice. The class given is in vivo, mouse. The following applies: 30 mg/kg i.p., 2 hours prior to test. The source says:
All mice were backcrossed into a C57BL/6 background, and housed and bred in a mouse vivarium at the Korea Advanced Institute of Science and Technology (KAIST, Shank2^−/−mice) and at Academia Sinica (Tbr1^+/− mice). Pups were kept with the dam until weaning at postnatal day 21. After weaning, animals were group housed in mixed-genotype groups of 3 to 5 mice per cages, and randomly subjected to electrophysiological and behavioral experiments. Animals at 3 to 5 weeks of age were used for electrophysiological experiments; male animals at 2 to 4 months of age were used for behavioral assays. For TFL-Zn staining, male animals at 8 weeks (for Shank2^−/−mice) were used. Wild-type littermates were used as controls.
The injection was performed 2 hours before (Shank2^−/− mice and wild-type littermates), or 3 hours before (Tbr1^+/− mice and wild-type littermates) behavioral assays at the discretion of the facility.
Testing was conducted in dedicated behavioral test rooms during the light phase (three-chamber test) and the dark phase (repetitive behaviors and open field test).
In short, the assay consisted of three phases of 10 minutes duration: habituation, social interaction (Stranger1 vs. Object), and social novelty recognition (Stranger 1 vs. Stranger 2). Exploration was defined as each instance in which wild-type or mutant mouse tries to sniff Object/Stranger, or orients its nose towards and come close to object/stranger. Individual movement tracks were analyzed by Ethovision 10.0 (Noldus) and modified by custom-designed software MatLab (Mathworks) to generate heat maps. Time spent in exploration was analyzed by the researcher who was blinded to the subject genotype (in Shank2 mice), or by using the Smart Video Tracking System (Panlab, in Tbr1 mice). In addition to exploration time, the preference index, which represents a numerical difference between time spent exploring the targets (Stranger1 vs. Object, or Stranger 2 vs. Stranger 1) divided by total time spent exploring both targets, as described previously.
Two hours after CQ treatment, the mice were subjected to a three-chamber social interaction test, which compares the preference of a mouse for a stranger mouse versus a novel inanimate object.

Turning to `Oc1c(I)cc(Cl)c2cccnc12` [clioquinol, 5-Chloro-7-Iodo-8-Hydroxyquinoline], the “NMDA-eEPSCs (NMDAR function) at −40 mV” value in assay [1] is recorded as “increased NMDA-eEPSCs”; in assay [1] (listed as CQ), “enhances NMDAR function”. Also, the “AMPA-eEPSCs at −40 mV” value in assay [1] (clioquinol treatment, WT and Shank2^−/−) is reported as “not affected”. In addition, the “NMDAR function (NMDA-eEPSCs at −40 mV) in the presence of sSrc (40-58)” value in assay [1] (peptide 0.03 mg/mL in internal solution) is recorded as “effectively enhances NMDAR function”. In assay [1] (peptide 0.03 mg/mL in internal solution, Shank2^−/− SC-CA1 synapses), the “NMDAR function (NMDA-eEPSCs at −40 mV) in the presence of Src (40-58)” value is “fails to enhance NMDAR function”. The Social novelty recognition result is “had no effect on social novelty recognition; also recorded: did not affect the social novelty recognition” in assay [2] (Shank2^−/− (KO) mice); “has no effect on social novelty recognition” in assay [2] (Shank2^−/− (KO) mice, listed as Clioquinol); “had no effect on social novelty recognition; also recorded: did not affect the social novelty recognition” in assay [2] (wild-type (WT) mice); “has no effect” in assay [2] (wild-type (WT) mice, listed as Clioquinol).

The values are drawn from patent US20160120858A1 (ACADEMIA SINICA, priority 2014, published 2016).
